Earlier results as cited in patent US20090232916A1, “FOOD PRODUCTS FOR DIABETICS” (priority 2004, published 2009).

Test system: IGT subjects
Details: over a period of three years

For `CN(C)C(=N)N=C(N)N` [metformin], the “reduction of the risk of progressing from IGT to diabetes” value is given as 31%.
